Measured values reported in ChEMBL document CHEMBL6087456 (J Med Chem, 2025).
≈ marks a conversion by molar mass, not a printed value.

How the values were obtained:
[1] = biological target: Dihydroorotate dehydrogenase (quinone), mitochondrial (Homo sapiens, UniProt Q02127); assay: Inhibition of C-terminal His6-tagged recombinant human DHODH (29 to 395 residues) N-terminally truncated soluble domain extracted from Escherichia coli phage resistant BL21-DE3 using CoQD/DHA/DCIP as substrates
Plasmodium falciparum [2] = assay: Antiparasitic activity against asexual blood stage Plasmodium falciparum 3D7 incubated for 72 hrs by SYBR Green assay; assay type: functional, organism-based; conditions: 3D7, 72 h
[3] = Kinetic solubility of compound at pH 6.5 measured after 30 mins by nephelometry; assay type: physicochemical; conditions: buffer, pH 6.5, read-out: Kinetic_solubility
[4] = Metabolic stability in human liver microsomes assessed as intrinsic clearance at 0.5 uM incubated for 60 mins in presence of NADPH by tandem quadrupole-Time of Flight MS; assay type: ADME, Microsome; conditions: 1 h
[5] = Cytotoxicity against human HepG2 cells by Cell Titer Glo assay; assay type: toxicity, cell-based
[6] = Cytotoxicity against human Jurkat cells by Cell Titer Glo assay; assay type: toxicity, cell-based
[7] = Partition coefficient, log D of compound at pH 7.4 measured after 24 hrs by LCMS analysis; assay type: physicochemical; conditions: octanol/water, pH 7.4, 24 h
[8] = Plasma protein binding in human measured for 6 hrs by rapid equilibrium dialysis; assay type: ADME, cell-free
[9] = Plasma protein binding in rat measured for 6 hrs by rapid equilibrium dialysis; assay type: ADME, cell-free
Albumin = Albumin (Homo sapiens, UniProt P02768); assay: Protein binding to albumin (unknown origin) in ALBUMAX medium; assay type: ADME; conditions: read-out: PB (converted)
[10] = Protein binding in human hepatocytes; assay type: ADME, cell-based, Hepatocyte; conditions: read-out: PB (converted)
[11] = Ratio of drug concentration in Sprague-Dawley rat brain to plasma at 1 uM measured for 5 to 60 mins by LCMS analysis; assay type: ADME, cell-free; conditions: time 5-60 min
[12] = Oral bioavailability in overnight-fasted male Sprague-Dawley rat at 3 mg/kg measured upto 72 hrs by LCMS analysis; assay type: ADME, organism-based; conditions: in vivo
[13] = Oral absorption in overnight-fasted male Sprague-Dawley rat at 3 mg/kg measured upto 72 hrs by LCMS analysis; assay type: ADME, organism-based; conditions: in vivo
[14] = Drug excretion in Sprague-Dawley rat urine at 1 mg/kg, iv; assay type: ADME, organism-based; conditions: read-out: Drug excretion
[15] = Permeability across apical to basal side in human Caco-2 cells; assay type: ADME, cell-based
Cytochrome P450 1A2 = biological target: T1, Cytochrome P450 1A2 (Homo sapiens, UniProt P05177); assay: Inhibition of CYP1A2 in human liver microsomes; assay type: ADME, Microsome
T1 sequence (P05177 whole entry): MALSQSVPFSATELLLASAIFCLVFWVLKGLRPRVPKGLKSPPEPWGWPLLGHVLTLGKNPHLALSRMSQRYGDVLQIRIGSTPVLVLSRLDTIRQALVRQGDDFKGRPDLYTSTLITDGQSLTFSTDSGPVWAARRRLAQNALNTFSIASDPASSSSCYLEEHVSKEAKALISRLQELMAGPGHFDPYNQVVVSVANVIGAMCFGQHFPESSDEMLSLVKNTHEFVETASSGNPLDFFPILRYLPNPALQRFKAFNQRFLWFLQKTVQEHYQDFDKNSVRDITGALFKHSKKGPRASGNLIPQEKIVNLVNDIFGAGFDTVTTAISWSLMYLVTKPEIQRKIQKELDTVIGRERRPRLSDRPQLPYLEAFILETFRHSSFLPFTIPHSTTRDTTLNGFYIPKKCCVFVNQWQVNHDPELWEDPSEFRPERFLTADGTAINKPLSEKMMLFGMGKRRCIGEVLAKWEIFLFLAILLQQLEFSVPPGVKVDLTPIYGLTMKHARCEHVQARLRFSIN

Cytochrome P450 2B6 = biological target: T2, Cytochrome P450 2B6 (Homo sapiens, UniProt P20813); assay: Inhibition of CYP2B6 in human liver microsomes; assay type: ADME, Microsome
T2 sequence (P20813 whole entry): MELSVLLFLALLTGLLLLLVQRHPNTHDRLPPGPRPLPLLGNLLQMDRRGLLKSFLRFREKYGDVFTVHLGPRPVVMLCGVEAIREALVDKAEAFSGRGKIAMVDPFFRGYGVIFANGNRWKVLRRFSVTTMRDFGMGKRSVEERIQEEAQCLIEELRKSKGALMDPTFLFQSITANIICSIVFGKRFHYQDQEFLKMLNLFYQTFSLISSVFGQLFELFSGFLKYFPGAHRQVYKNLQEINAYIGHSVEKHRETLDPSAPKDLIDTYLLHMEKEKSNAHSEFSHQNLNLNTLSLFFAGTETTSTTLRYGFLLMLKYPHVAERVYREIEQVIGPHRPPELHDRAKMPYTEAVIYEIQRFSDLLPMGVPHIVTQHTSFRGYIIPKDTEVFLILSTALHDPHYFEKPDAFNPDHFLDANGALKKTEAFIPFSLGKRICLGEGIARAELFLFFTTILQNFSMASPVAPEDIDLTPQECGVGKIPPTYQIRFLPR

Cytochrome P450 2D6 = Cytochrome P450 2D6 (Homo sapiens, UniProt P10635); assay: Inhibition of CYP2D6 in human liver microsomes; assay type: ADME, Microsome
Cytochrome P450 3A4 = Cytochrome P450 3A4 (Homo sapiens, UniProt P08684); assay: Inhibition of CYP3A4 in human liver microsomes; assay type: ADME, Microsome
Cytochrome P450 2C19 = Cytochrome P450 2C19 (Homo sapiens, UniProt P33261); assay: Inhibition of CYP2C19 in human liver microsomes; assay type: ADME, Microsome
Plasmodium falciparum [16] = assay: Antiparasitic activity against Plasmodium falciparum 3D7 assessed as lag time before killing at 10 times EC50 pretreated for 120 hrs followed by compound removal and replacement of media without compound measured after 28 days by cell killing assay; assay type: functional
Plasmodium falciparum [17] = assay: Antiparasitic activity against Plasmodium falciparum 3D7 assessed as parasitic reduction ratio at 10 times EC50 pretreated for 120 hrs followed by compound removal and replacement of media without compound measured after 28 days by cell killing assay; assay type: functional
[18] = Half life in overnight-fasted male Sprague-Dawley rat at 3 mg/kg, po or 1 mg/kg, iv measured upto 72 hrs by LCMS analysis; assay type: ADME, organism-based; conditions: in vivo
Cytochrome P450 2C8 = biological target: T3, Cytochrome P450 2C8 (Homo sapiens, UniProt P10632); assay: Inhibition of CYP2C8 in human liver microsomes; assay type: ADME, Microsome
T3 sequence (P10632 whole entry): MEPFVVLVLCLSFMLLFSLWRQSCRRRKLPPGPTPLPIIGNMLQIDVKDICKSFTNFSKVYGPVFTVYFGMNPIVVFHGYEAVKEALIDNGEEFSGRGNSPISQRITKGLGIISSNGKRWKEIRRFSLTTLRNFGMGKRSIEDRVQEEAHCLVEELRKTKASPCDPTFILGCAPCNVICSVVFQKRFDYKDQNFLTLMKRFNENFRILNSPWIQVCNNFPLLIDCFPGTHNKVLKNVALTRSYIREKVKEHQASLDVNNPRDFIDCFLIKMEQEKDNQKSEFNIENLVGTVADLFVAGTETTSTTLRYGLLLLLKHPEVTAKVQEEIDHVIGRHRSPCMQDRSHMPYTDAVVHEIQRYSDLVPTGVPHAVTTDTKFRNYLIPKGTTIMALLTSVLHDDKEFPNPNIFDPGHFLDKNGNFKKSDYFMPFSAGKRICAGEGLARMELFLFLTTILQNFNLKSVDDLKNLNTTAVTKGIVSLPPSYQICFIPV

Cytochrome P450 2D6, sequence (P10635 whole entry): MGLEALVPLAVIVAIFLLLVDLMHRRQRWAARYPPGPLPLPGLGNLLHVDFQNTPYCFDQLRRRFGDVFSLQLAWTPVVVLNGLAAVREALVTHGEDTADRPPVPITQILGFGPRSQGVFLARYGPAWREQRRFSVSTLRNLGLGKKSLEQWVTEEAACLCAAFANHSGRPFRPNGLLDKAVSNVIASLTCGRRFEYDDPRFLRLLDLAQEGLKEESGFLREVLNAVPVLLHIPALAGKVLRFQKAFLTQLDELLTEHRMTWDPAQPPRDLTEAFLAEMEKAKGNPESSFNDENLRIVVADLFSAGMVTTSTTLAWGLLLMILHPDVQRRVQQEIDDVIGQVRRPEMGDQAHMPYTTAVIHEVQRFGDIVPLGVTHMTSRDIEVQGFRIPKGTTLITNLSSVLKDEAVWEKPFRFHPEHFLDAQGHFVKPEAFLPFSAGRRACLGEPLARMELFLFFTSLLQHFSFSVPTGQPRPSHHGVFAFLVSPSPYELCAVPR
Cytochrome P450 3A4, sequence (P08684 whole entry): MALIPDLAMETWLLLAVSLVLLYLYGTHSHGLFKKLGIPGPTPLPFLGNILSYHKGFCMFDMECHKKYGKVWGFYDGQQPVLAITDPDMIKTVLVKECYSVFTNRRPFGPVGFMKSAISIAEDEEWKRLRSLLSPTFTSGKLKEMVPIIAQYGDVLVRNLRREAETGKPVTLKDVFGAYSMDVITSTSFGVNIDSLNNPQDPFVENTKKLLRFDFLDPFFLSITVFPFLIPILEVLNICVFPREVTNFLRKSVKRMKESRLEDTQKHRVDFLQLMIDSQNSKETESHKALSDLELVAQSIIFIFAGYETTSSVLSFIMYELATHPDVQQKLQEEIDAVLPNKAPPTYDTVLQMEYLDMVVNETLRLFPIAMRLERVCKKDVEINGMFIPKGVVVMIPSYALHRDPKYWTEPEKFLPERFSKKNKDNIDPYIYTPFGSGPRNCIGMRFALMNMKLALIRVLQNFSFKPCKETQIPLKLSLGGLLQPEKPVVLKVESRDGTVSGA
Albumin, sequence (P02768 whole entry): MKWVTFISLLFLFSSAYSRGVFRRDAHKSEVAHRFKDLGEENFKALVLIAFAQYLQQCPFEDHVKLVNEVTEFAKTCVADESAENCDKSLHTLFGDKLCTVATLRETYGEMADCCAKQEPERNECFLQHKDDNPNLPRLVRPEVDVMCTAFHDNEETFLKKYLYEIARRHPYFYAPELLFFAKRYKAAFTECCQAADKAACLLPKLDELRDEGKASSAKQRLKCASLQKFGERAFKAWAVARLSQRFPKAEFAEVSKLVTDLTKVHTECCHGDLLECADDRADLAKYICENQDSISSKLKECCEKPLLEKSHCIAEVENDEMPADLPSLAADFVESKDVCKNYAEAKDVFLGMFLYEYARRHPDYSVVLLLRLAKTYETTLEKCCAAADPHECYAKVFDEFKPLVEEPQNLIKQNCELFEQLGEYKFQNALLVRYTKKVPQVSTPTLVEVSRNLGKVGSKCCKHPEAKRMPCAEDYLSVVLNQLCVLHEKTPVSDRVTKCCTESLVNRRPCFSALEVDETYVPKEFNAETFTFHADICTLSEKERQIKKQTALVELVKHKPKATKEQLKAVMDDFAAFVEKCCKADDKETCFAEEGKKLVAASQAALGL
Dihydroorotate dehydrogenase (quinone), mitochondrial, sequence (Q02127 whole entry, the tested form may be a part): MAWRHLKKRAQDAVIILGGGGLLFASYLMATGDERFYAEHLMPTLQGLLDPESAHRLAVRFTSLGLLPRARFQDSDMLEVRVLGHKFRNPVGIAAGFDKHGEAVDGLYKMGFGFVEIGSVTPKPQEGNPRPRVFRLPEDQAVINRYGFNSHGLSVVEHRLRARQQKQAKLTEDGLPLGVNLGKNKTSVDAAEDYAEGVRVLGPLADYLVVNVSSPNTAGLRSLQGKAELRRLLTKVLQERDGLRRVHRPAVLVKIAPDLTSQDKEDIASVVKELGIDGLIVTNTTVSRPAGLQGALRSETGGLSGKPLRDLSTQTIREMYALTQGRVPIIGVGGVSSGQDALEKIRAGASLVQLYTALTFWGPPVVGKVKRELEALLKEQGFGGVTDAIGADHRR
Cytochrome P450 2C19, sequence (P33261 whole entry): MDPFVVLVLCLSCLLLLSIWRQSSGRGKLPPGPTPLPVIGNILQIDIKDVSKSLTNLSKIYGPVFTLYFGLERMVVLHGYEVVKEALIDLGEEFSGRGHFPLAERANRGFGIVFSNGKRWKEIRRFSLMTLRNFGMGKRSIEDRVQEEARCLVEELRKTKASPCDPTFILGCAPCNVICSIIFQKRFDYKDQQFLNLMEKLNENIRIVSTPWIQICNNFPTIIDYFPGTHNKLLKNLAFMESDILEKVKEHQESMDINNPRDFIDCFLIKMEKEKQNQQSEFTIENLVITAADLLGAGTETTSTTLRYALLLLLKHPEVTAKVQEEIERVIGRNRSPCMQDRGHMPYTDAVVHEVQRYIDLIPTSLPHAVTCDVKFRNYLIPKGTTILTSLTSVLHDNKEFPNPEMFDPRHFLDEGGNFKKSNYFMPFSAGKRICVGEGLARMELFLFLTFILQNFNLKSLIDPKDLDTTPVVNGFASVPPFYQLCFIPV

Cn1nc2c(=O)n(C3CC3)ccc2c1[C@](O)(c1cnc(C(F)(F)F)c(Cl)c1)C(F)(F)F
IC50 [1]: > 30 µM
EC50 (Plasmodium falciparum [2]): 0.001 µM
solubility kinetic at 0.5 h [3]: 20 µM (≈ 9.34 µg/mL)
intrinsic clearance (CLint) [4]: < 3 µL/min/mg
CC50 [5]: > 20 µM
CC50 [6]: > 20 µM
logD [7]: 2.3
PPB [8]: 68.5%
PPB [9]: 75.9%
fraction unbound (Albumin): 0.338
fraction unbound [10]: 0.249
BPR [11]: 0.79
F [12]: > 63%
Fa at 72 h [13]: 100%
dose excreted [14]: < 1%
permeability [15]: Permeable
IC50 (Cytochrome P450 1A2): > 20 µM
IC50 (Cytochrome P450 2B6): > 20 µM
IC50 (Cytochrome P450 2D6): > 20 µM
IC50 (Cytochrome P450 3A4): > 20 µM
IC50 (Cytochrome P450 2C19): 6.7 µM

Cn1nc2c(=O)n(C3CC3)ncc2c1[C@](N)(c1ccc(C(F)(F)F)c(Cl)c1)C1CC1
EC50 (Plasmodium falciparum [2]): 0.007 µM
solubility kinetic at 0.5 h [3]: 12.5 µM (≈ 5.47 µg/mL)
intrinsic clearance (CLint) [4]: < 3 µL/min/mg
CC50 [5]: > 20 µM
CC50 [6]: > 20 µM
Time (Plasmodium falciparum [16]): ~26 h
log(activity) (Plasmodium falciparum [17]): 3.1
PPB [8]: 90.8%
PPB [9]: 86%
fraction unbound (Albumin): 0.239
fraction unbound [10]: 0.335
t1/2 [18]: 17 h
F [12]: 79%
Fa at 72 h [13]: 81%
dose excreted [14]: < 1%
IC50 (Cytochrome P450 1A2): > 20 µM
IC50 (Cytochrome P450 2B6): > 20 µM
IC50 (Cytochrome P450 2D6): > 20 µM
IC50 (Cytochrome P450 3A4): > 20 µM
IC50 (Cytochrome P450 2C8): 7 µM
